Experimental data published in patent publication US8394832B2, “Methods and compositions using immunomodulatory compounds for the treatment of immunodeficiency disorders” (Celgene Corporation, priority 2004, dated 2013).

Assays:
[1] = tested on: IgE synthesis; test: IgE ELISA of human PBMC treated with anti CD40 and IL-4 for three weeks; assay type: cell-based; conditions: 504 h, human PBMCs in presence of CD40+IL-4 for three weeks (FIGS. 11A and B), read-out: IC50 of inhibition of IgE synthesis
Method: Human PBMCs (1×10^6/ml) were treated with immunomodulatory compounds in presence of anti-CD40 (2 ug/ml) and IL-4 (40 ng/ml) for three weeks. Fifty microliter of supernatant was used for IgE ELISA, following the manufacturer's instruction. The absorbance was read by ELISA reader at OD=450 nm.
IL-4 is a unique signal for B cells to produce IgE during the immunoglobulin class switch. To assess whether immunomodulatory compounds can regulated IgE synthesis, 1,3-dioxo-(2,6-dioxopiperidin-3-yl)-4-aminoisoindoline or 1-oxo-(2,6-dioxopiperidin-3-yl)-4-aminoisoindoline was incubated with human PBMCs in presence of CD40+IL-4 for three weeks. […] (FIGS. 11A and B).
Treatment of PBMC: 200 μl of 1×10^6/ml human PBMC were plated in 96 well plate, and the cells were pretreated with IMiDs at indicated concentrations (60, 6, 0.6, 0.06, 0.006, 0.0006 uM) for 30 minutes. Anti CD40 (#AHS4002, Biosource, 2 μg/ml) and IL-4 (#200-04, Pepro Tech, 40 ng/ml) were added to each well. Human PBMC in presence of IMiDs, anti CD40 and IL-4 were incubated for three weeks. Fifty microliters of supernatant was subjected to IgE ELISA.
IgE ELISA: The IgE ELISA Quantitation Kit was purchased from Bethyl Laboratories, Inc. (#E80-108). […] The ELISA plate was read at OD=450 nm in ELISA plate reader.

[2] = tested on: CD69; test: FACS analysis of CD69 expression in CD19+ B cells; assay type: cell-based, human
Method: (§1) Human buffy coat (50 ml) was diluted with 50 ml sterile PBS (Ca^++, Mg^++ free), and mixed gently. A 25 ml aliquot of diluted buffy coat was transferred to each 50 ml centrifuge tube, and Histopaque-1077 (14 ml, #1077-1, Sigma) was gently layered into the bottom of the tube. The sample was centrifuged at 2,000 rpm for 30 min at room temperature. The interface containing mononuclear cells was transferred into 50 ml centrifuge tube, and washed once with PBS (1200 rpm, 5 min). The supernatant was discarded. Cell pellet was resuspended in Miltenyi buffer. Anti-CD19^+ microbeads were added to the suspension (10^7 cells in 80 μl of buffer, 20 μl antibody beads for 10^7 cells) and incubated for 15 min at 4° C. Cell pellet was washed once and resuspended in 1 ml Miltenyi buffer. The cell suspension was added to the magnetic column, washed with 10 ml Miltenyi buffer in the column. CD19^+ cells are released by 1 ml Miltenyi Buffer without magnetic field. CD19^+ cells were washed twice with RPMI complete medium. B cells (2×10^5) were plated in 96 well plate.
B cells were treated with 1,3-dioxo-(2,6-dioxopiperidin-3-yl)-4-aminoisoindoline (FIG. 3A) or 1-oxo-(2,6-dioxopiperidin-3-yl)-4-aminoisoindoline (FIG. 3B) in presence of anti IgM, anti CD40 and IL-4 for 3 days. The suspension of B cells was washed by PBS once, and incubated with FITC conjugated anti human CD69 for 30 min in the dark. B cells were subject to FACS analysis using flow cytometer (EPICS XL-MCL, Beckman Coulter Company).
To assess whether the effects of immunomodulatory compounds on IL-4 signaling impact on IL-4 mediated B cell activation, FACS array of immediate early expression marker CD69 expression at triplicates and six doses was examined using 1,3-dioxo-(2,6dioxopiperidin-3-yl)-4-aminoisoindoline or 1-oxo-(2,6-dioxopiperidin-3-yl)-4-aminoisoindoline. […] Thus, it is clear that immunomodulatory compounds have no impact on this process.

[3] = tested on: TNFα; test: TNFα ELISA of treated B cells; assay type: cell-based, human; conditions: activated CD19+ cells (FIG. 4)
Method: as §1, with “plate. […]” for “plate.”
TNFα levels in 1,3-dioxo-(2,6-dioxopiperidin-3-yl)-4-aminoisoindoline or 1-oxo-(2,6-dioxopiperidin-3-yl)-4-aminoisoindoline treated B cells were determined using TNFα ELISA.

[4] = tested on: B cells; test: B cell proliferation by BrdU ELISA; assay type: cell-based, human; conditions: 3 days (FIG. 7A)
Method: as §1
B cells were pretreated with 1,3-dioxo-(2,6-dioxopiperidin-3-yl)-4-aminoisoindoline or 1-oxo-(2,6-dioxopiperidin-3-yl)-4-aminoisoindoline at the concentrations of 60 μM, 6 μM, 0.6 μM, 0.06 μM, 0.006 μM, and 0.0006 μM for 30 min, then were added 2 μg/ml of anti-IgM, 2 μg/ml of anti CD40, 40 ng/ml IL-4, 100 ng/ml of recombinant BAFF, and/or 0.5 μg/ml of LPS. B cells were typically treated with the immunomodulatory compound alone or in presence of one or more of above stimuli for 3 days. Stimulated B cells with or without the treatment with immunomodulatory compound were used for cell proliferation assay and cytokines analysis.
The crosslinking of B cell receptor antigen (“BCR”) is the primary signal for B cell activation in response to antigen, and is critical in initializing subsequent B cell activation, proliferation, and differentiation. To assess B cell activation, B cells were treated with 1,3-dioxo-(2,6-dioxopiperidin-3-yl)-4-aminoisoindoline or 1-oxo-(2,6-dioxopiperidin-3-yl)-4-aminoisoindoline in presence of stimuli for 3 days. 25 μl BrdU was added to 250 μl cell culture 24 hours before harvesting cells. B cells were dried at 60° C. after removal of labeling supernatant. 100 μl FixDenat solution was added to fix cells for 30 min at room temperature. FixDenat solution was removed by tapping plate, then 100 μl anti-BrdU-POD was added each well for 90 min, at room temperature, and the plate was washed three 3 times. 100 μl of substrate was added to plate for 10 min, then 100 μl stop solution was added. Absorbance was measured by using an ELISA microplate reader (Molecular Devices) at OD 450 nm. […]

[5] = cited from earlier work; for hygroscopicity: crystalline polymorphic form; for interconversion of the polymorphic form: solvent system, humidity or heating

For Nc1cccc2c1CN(C1CCC(=O)NC1=O)C2=O (stereo not shown) [1-oxo-(2,6-dioxopiperidin-3-yl)-4-aminoisoindoline], the IC50 [1] was 100 to 300 nM, the CD69 expression ([2]; CD19+ B cells treated with anti human IgM, anti human CD40 and IL-4, 3 days (FIGS. 3A, 3B)) was “dose-dependently enhanced” and the CD69 expression ([2]; IL-4 stimulated CD19+ B cells, triplicates, six doses (FIGS. 10A and B)) was “neither immunomodulatory compound inhibited”. The “TNFα production in B cells” value [3] was “dose dependently enhance”, the B cell proliferation ([4]; combined with IgM (anti-IgM)) was “enhance” and the “effect on B cell activation/proliferation” value ([4]; compound alone) was “minimal effect”.

For Nc1cccc2c1CN(C1CCC(=O)NC1=O)C2=O (stereo not shown) [Form A, 3-(4-amino-1-oxo-1,3 dihydro-isoindol-2-yl)-piperidene-2,6-dione], the “relative stability of the polymorphic form” value ([5]; Form A among anhydrous polymorphs, Form E in aqueous solvent systems) is listed as “most thermodynamically stable anhydrous polymorph” and the hygroscopicity [5] is listed as “weakly or not hygroscopic”.

For Nc1cccc2c1CN(C1CCC(=O)NC1=O)C2=O (stereo not shown) [Form B, 3-(4-amino-1-oxo-1,3 dihydro-isoindol-2-yl)-piperidene-2,6-dione], the “interconversion of the polymorphic form” value [5] is given as “converts to Form E in aqueous solvent systems”.

In the case of Nc1cccc2c1CN(C1CCC(=O)NC1=O)C2=O (stereo not shown) [Form C, 3-(4-amino-1-oxo-1,3 dihydro-isoindol-2-yl)-piperidene-2,6-dione], the hygroscopicity [5] is listed as “not hygroscopic below about 85% RH” and the “interconversion of the polymorphic form” value [5] is listed as “can convert to Form B at higher relative humidities”.

For Nc1cccc2c1CN(C1CCC(=O)NC1=O)C2=O (stereo not shown) [Form D, 3-(4-amino-1-oxo-1,3 dihydro-isoindol-2-yl)-piperidene-2,6-dione], the hygroscopicity [5] is given as “either weakly or not hygroscopic” and the “interconversion of the polymorphic form” value [5] is given as “will typically convert to Form B when stressed at higher relative humidities”.
